Laboratory results reported in article PMC11357256, “Selectivity Screening and Structure–Cytotoxic Activity Observations of Selected Oleanolic Acid (OA)-Type Saponins from the Amaranthaceae Family on a Wiade Panel of Human Cancer Cell Lines” (Molecules, 2024).
Where two headings read alike, the source gives them in different places.

Tests used:
WM793 = test: MTT cell viability assay, WM793 primary melanoma cells; assay type: cell-based, human; conditions: for IC50: Homo sapiens
From the text: (§1) Cell lines used in the study were grouped as follows: skin panel (melanomas: HTB140, derived from metastatic site: lymph node, ATCC Hs 294 T; malignant A375, ATCC CRL-1619; stage I primary WM793, RRID:CVCL 8787; skin keratinocytes HaCaT); prostate panel (prostate carcinomas: Du145, derived from metastatic site: brain, ATCC HTB-81; grade IV PC3, derived from metastatic site: bone, ATCC CRL-1435, LNCaP, derived from the metastatic site: lymph node, ATCC CRL-1740; prostate epithelial, PNT2, ECACC 95012613); gastrointestinal panel (colorectal adenocarcinomas: Caco2, ATCC HTB-37, HT29, ATCC HTB-38, DLD-1, ATCC CCL-221, HCT116, ATCC CCL-247, and colon epithelial cells CCD 841 CoN, ATCC CRL-1790; hepatocellular carcinoma HepG2, ATCC HB-8065); thyroid panel (follicular thyroid carcinoma FTC133, ECACC 9406090, undifferentiated thyroid carcinoma 8505C, ECACC 94090184, papillary thyroid carcinoma TPC-1, SCC147, normal thyroid follicular epithelial Nthy-ori 3–1, ECACC 90011609); and breast panel (ER-positive breast adenocarcinoma MCF7, ATCC HTB-22; ER-negative breast adenocarcinoma MDA-MB-231, ATCC HTB-26; breast epithelial MCF10A, ATCC CRL-10317). Cells were grown under standard conditions (37 °C, 5% CO2, relative humidity), and culture media (DMEM/F12 for PNT2, WM 793, HT29, PC3, FTC133, 8505 C, MDA-MB-231, TPC-1; DMEM Low Glucose for DU145; DMEM High Glucose for HTB140, A375, HaCaT; MEM with NEAA for Caco2 and MCF7; RPMI1640 with sodium pyruvate for LNCaP; DMEM/F12 with 20 ng/mL epidermal growth factor (EGF), 10 μg/mL insulin, 0.5 μg/mL hydrocortisone, 100 ng/mL cholera toxin) for MCF10A) supplemented with 10% fetal bovine serum (FBS) or 5% donor horse serum for MCF10A, and 1% antibiotics solution (10,000 U penicillin and 10 mg streptomycin/mL) […], as previously described. All cell lines, culture media, and supplements were from Sigma-Aldrich (Germany).
(§2) The cells were seeded in 96-well plates (1.5 × 10^4 cells/well). After 24 h, fresh medium was added, containing the tested compounds (0.5–100 μg/mL) and incubated for 24 or 48 h. Cell viability was determined by MTT assay, according to the manufacturer’s instructions, as described previously. Each experiment was performed in triplicate. The absorbance was measured at 570 nm using a Biotek Synergy microplate reader (BioTek Instruments Inc., Winooski, VT, USA). Cell viability was expressed as a percent of control (untreated cells). Doxorubicin was used as a reference drug.
(§3) The selectivity index (SI) was calculated from the following formula:SI = IC50 of compound in a normal cell line/IC50 of compound in cancer cell line.IC50, half maximal inhibitory concentration, is a concentration required to kill 50% of the cells.

FTC133 = test: MTT cell viability assay, FTC133 follicular thyroid carcinoma cells; assay type: cell-based, human; conditions: for IC50: Homo sapiens, FTC-133
From the text: as §1, §2, §3

CCD 841 CoN = test: MTT cell viability assay, CCD 841 CoN normal colon epithelial cells; assay type: cell-based; conditions: Homo sapiens
From the text: as §1, §2

Nthy-ori 3-1 = test: MTT cell viability assay, Nthy-ori 3-1 normal thyroid epithelial cells; assay type: cell-based; conditions: Homo sapiens
From the text: as §1, §2

A375 = test: MTT cell viability assay, A375 malignant melanoma cells; assay type: cell-based, human; conditions: for IC50: Homo sapiens, A-375
From the text: as §1, §2, §3

HaCaT = test: MTT cell viability assay, HaCaT keratinocytes; assay type: cell-based; conditions: Homo sapiens
From the text: as §1, §2

MCF7 = test: MTT cell viability assay, MCF7 breast adenocarcinoma cells; assay type: cell-based; conditions: Homo sapiens
From the text: as §1, §2

PNT2 = test: MTT cell viability assay, PNT2 normal prostate epithelial cells; assay type: cell-based; conditions: Homo sapiens
From the text: as §1, §2

MDA-MB-231 = test: MTT cell viability assay, MDA-MB-231 breast adenocarcinoma cells; assay type: cell-based; conditions: Homo sapiens
From the text: as §1, §2

MCF10A = test: MTT cell viability assay, MCF10A normal breast epithelial cells; assay type: cell-based; conditions: Homo sapiens, MCF-10A
From the text: as §1, §2

HCT116 = test: MTT cell viability assay, HCT116 colon cancer cells; assay type: cell-based; conditions: Homo sapiens, HCT-116
From the text: as §1, §2

PC3 = test: MTT cell viability assay, PC3 prostate carcinoma cells; assay type: cell-based; conditions: Homo sapiens, PC-3
From the text: as §1, §2

LNCaP = test: MTT cell viability assay, LNCaP prostate adenocarcinoma cells; assay type: cell-based; conditions: Homo sapiens
From the text: as §1, §2

HepG2 = test: MTT cell viability assay, HepG2 hepatocellular carcinoma cells; assay type: cell-based; conditions: Homo sapiens
From the text: as §1, §2

Du-145 = test: MTT cell viability assay, Du-145 prostate carcinoma cells; assay type: cell-based; conditions: Homo sapiens
From the text: as §1, §2

Caco-2 = test: MTT cell viability assay, Caco-2 colon cancer cells; assay type: cell-based; conditions: Homo sapiens
From the text: as §1, §2

HTB-140 = test: MTT cell viability assay, HTB-140 metastatic melanoma cells; assay type: cell-based, human; conditions: for IC50: Homo sapiens
From the text: as §1, §2, §3

TPC-1 = test: MTT cell viability assay, TPC-1 papillary thyroid carcinoma cells; assay type: cell-based, human; conditions: for IC50: Homo sapiens, TPC1
From the text: as §1, §2, §3

MCF-7 cells = conditions: cited from earlier work

With `CC1(C)CCC2(C(=O)O)CCC3(C)C(=CCC4C5(C)CCC(OC6OC(C(=O)O)C(O)C(O)C6O)C(C)(C)C5CCC43C)C2C1` [CE, oleanolic acid-3-O-β-D-glucuronopyranoside] the IC50 (WM793; WM793, 24 h) was 2.4 µg/mL, the IC50 (WM793; WM793, 48 h) was 1.2 µg/mL and the “Selectivity Index (SI)” value (WM793; IC50 HaCaT / IC50 WM793, 24 h) was 2.1. The “Selectivity Index (SI)” value (WM793; IC50 HaCaT / IC50 WM793, 48 h) was 1.6, the IC50 (FTC133; FTC133, 24 h) was 1.9 µg/mL and the IC50 (FTC133; FTC133, 48 h) was 1.1 µg/mL. The “Selectivity Index (SI)” value (FTC133; IC50 Nthy-ori 3-1 / IC50 FTC133, 24 h) was 38.6, the “Selectivity Index (SI)” value (FTC133; IC50 Nthy-ori 3-1 / IC50 FTC133, 48 h) was 28.1 and the IC50 (CCD 841 CoN; 24 h) was greater than 100 µg/mL. The IC50 (CCD 841 CoN; 48 h) was greater than 100 µg/mL, the IC50 (Nthy-ori 3-1; 24 h) was 76 µg/mL and the IC50 (Nthy-ori 3-1; 48 h) was 30.1 µg/mL. For the same molecule, the IC50 (A375; A375, 24 h) was 1.8 µg/mL, the IC50 (A375; A375, 48 h) was 0.8 µg/mL and the “Selectivity Index (SI)” value (A375; IC50 HaCaT / IC50 A375, 24 h) was 2.9. For the same molecule, the “Selectivity Index (SI)” value (A375; IC50 HaCaT / IC50 A375, 48 h) was 2.6, the IC50 (HaCaT; 24 h) was 5.1 µg/mL and the IC50 (HaCaT; 48 h) was 2 µg/mL. It also gave an IC50 (MCF7; MCF7, 24 h) greater than 100 µg/mL, an IC50 (MCF7; MCF7, 48 h) of 39.5 µg/mL and an IC50 (PNT2; 24 h) greater than 100 µg/mL. It also gave an IC50 (PNT2; 48 h) greater than 100 µg/mL, an IC50 (MDA-MB-231; MDA-MB-231, 24 h) of 69.6 µg/mL and an IC50 (MDA-MB-231; MDA-MB-231, 48 h) of 23.5 µg/mL. The IC50 (MCF10A; 24 h) was greater than 100 µg/mL, the IC50 (MCF10A; 48 h) was greater than 100 µg/mL and the IC50 (HCT116; HCT116, 24 h) was 14.3 µg/mL. It also gave an IC50 (HCT116; HCT116, 48 h) of 10.2 µg/mL, an IC50 (PC3; PC3, 24 h) of 5.6 µg/mL and an IC50 (PC3; PC3, 48 h) of 2.9 µg/mL. The IC50 (LNCaP; 24 h) was greater than 100 µg/mL, the IC50 (LNCaP; 48 h) was greater than 100 µg/mL and the IC50 (HepG2; HepG2, 24 h) was 16.5 µg/mL. The IC50 (HepG2; HepG2, 48 h) was 6.9 µg/mL, the IC50 (Du-145; DU-145, 24 h) was 6.7 µg/mL and the IC50 (Du-145; DU-145, 48 h) was 4.3 µg/mL. It also gave an IC50 (Caco-2; Caco-2, 24 h) of 2 µg/mL, an IC50 (Caco-2; Caco-2, 48 h) of 1 µg/mL and an IC50 (HTB-140; HTB-140, 24 h) of 2.8 µg/mL. The IC50 (HTB-140; HTB-140, 48 h) was 1.7 µg/mL, the “Selectivity Index (SI)” value (HTB-140; IC50 HaCaT / IC50 HTB-140, 24 h) was 1.8 and the “Selectivity Index (SI)” value (HTB-140; IC50 HaCaT / IC50 HTB-140, 48 h) was 1.1. For the same molecule, the IC50 (TPC-1; TPC-1, 24 h) was 8.5 µg/mL, the IC50 (TPC-1; TPC-1, 48 h) was 5.8 µg/mL and the “Selectivity Index (SI)” value (TPC-1; IC50 Nthy-ori 3-1 / IC50 TPC-1, 24 h) was 9.0. For the same molecule, the “Selectivity Index (SI)” value (TPC-1; IC50 Nthy-ori 3-1 / IC50 TPC-1, 48 h) was 5.1, the IC50 (MCF-7 cells; 48 h, ref 13) was 35.4 µg/mL and the IC50 (MCF-7 cells; 48 h, ref 14, read-out: IC50) was 19.7 µM. The IC50 (MCF-7 cells; 72 h, read-out: IC50) was 13.4 µM.
